Data taken from ChEMBL document CHEMBL5370522, “Anti-inflammatory efficacy and relevant SAR investigations of novel chiral pyrazolo isoquinoline derivatives: Design, synthesis, in-vitro, in-vivo, and computational studies targeting iNOS” (Eur J Med Chem, 2023).
Calls of active or inactive are those of the source. The rule behind the calls is not given here.

Columns and labels:
[1] = test system: Mus musculus; test: Antiinflammatory activity against xylene-induced ear edema mouse model assessed as swelling rate at 10 mg/kg, iv measured after 30 mins; type: functional; conditions: 0.5 h
[2] = Cytotoxicity against mouse RAW264.7 cells assessed as cell survival rate at 100 uM incubated for 24 hrs by MTT assay; type: toxicity, cell-based; conditions: read-out: Activity
[3] = test system: RAW264.7; test: Anti inflammatory activity in LPS-induced mouse RAW264.7 cells assessed as inhibition of NO production preincubated with LPS for 4 hrs followed by compound addition and measured after 18 hrs by griess reagent based assay; type: functional, cell-based; conditions: for Activity: dose 5-80 µM
[4] = test system: RAW264.7; test: Anti inflammatory activity in LPS-induced mouse RAW264.7 cells assessed as inhibition of NO production at 80 uM preincubated with LPS for 4 hrs followed by compound addition and measured after 18 hrs by griess reagent based assay; type: functional; parameters: scale not given: the % may be the effect or the level left
[5] = test system: RAW264.7; test: Cytotoxicity against mouse RAW264.7 cells assessed as reduction in cell viability at 1 to 40 uM incubated for 24 hrs by MTT assay; type: toxicity, cell-based; conditions: raw264.7, 24 h, dose 1-40 µM
[6] = test system: RAW264.7; test: Anti inflammatory activity in LPS-induced mouse RAW264.7 cells assessed as reduction in iNOS expression at 5 to 80 uM measured for 24 hrs by Western blot analysis; type: functional, cell-based; conditions: dose 5-80 µM

Structure (SMILES) | IC50 [3] [µM] | Activity [1] [%] | viability at 24 h, 100 µM [2] [%] | Activity [3] | Activity [4] [%] | Activity [5] [%] | Activity [6]
Cc1ccc(-c2cc(C(F)(F)F)nn2-c2ccc(S(N)(=O)=O)cc2)cc1 [CELECOXIB] |  | 70.05 |  |  |  |  | 
Cc1ccc(S(=O)(=O)N2C(=O)[C@H](c3ccccc3F)[C@H]3c4cccc(Br)c4C=CN32)cc1 |  |  | 87.7 | Dose-Dependent Effect | 92.84 | 90 | 
Cc1ccc(S(=O)(=O)N2C(=O)[C@H](c3ccc(F)cc3)[C@H]3c4ccccc4C=CN32)cc1 |  | 64.4 | 91.7 | Dose-Dependent Effect | 73.46 |  | 
Cc1ccc(S(=O)(=O)N2C(=O)[C@H](c3cccc(Br)c3)[C@H]3c4cccc(Br)c4C=CN32)cc1 |  |  | 81.7 | Dose-Dependent Effect | 72.86 |  | 

More lines, main results first:

IC50 [3] [µM] | Structure (SMILES) | Activity [1] [%] | viability at 24 h, 100 µM [2] [%] | Activity [3] | Activity [4] [%] | Activity [5] [%] | Activity [6]
26.7 | COc1ccc([C@H]2C(=O)N(S(=O)(=O)c3ccc(C)cc3)N3C=Cc4c(Br)cccc4[C@H]23)cc1 |  | 91.7 | Dose-Dependent Effect | 84.9 |  | 
47.8 | Cc1ccc(S(=O)(=O)N2C(=O)[C@H](c3ccccc3)[C@H]3c4cccc(Br)c4C=CN32)cc1 |  | 92.3 | Dose-Dependent Effect | 90.52 | 90 | 
47.8 | COc1ccc([C@H]2C(=O)N(S(=O)(=O)c3ccc(C)cc3)N3C=Cc4ccccc4[C@H]23)cc1 |  | 87 | Dose-Dependent Effect | 77.09 |  | 
33.8 | Cc1ccc(S(=O)(=O)N2C(=O)[C@H](c3cccc(F)c3)[C@H]3c4cccc(Br)c4C=CN32)cc1 |  |  | Dose-Dependent Effect |  |  | 
20.8 | Cc1ccc(S(=O)(=O)N2C(=O)[C@H](c3ccc(Br)cc3)[C@H]3c4cccc(Br)c4C=CN32)cc1 |  | 92.9 | Dose-Dependent Effect | 91.61 | 90 | Active
